Assay results: patent US8044053B2, “Sulfonamide substituted pyrazoline compounds, their preparation and use as CB1 modulators” (Laboratories del Dr. Esteve, S.A., priority 2006, dated 2011)
Where a name gives a salt, the structure may show the parent alone.

These compounds were tested against CB1-receptor (UniProt P20272) (assay: In-vitro determination of affinity (binding) to CB1-receptors, radioligand [3H]-CP55940). Settings: Pharmacological Methods Part I.
Design: IC50; Ki; species or system human or rat
Description: I. In-Vitro Determination of Affinity to CB1/CB2-Receptors
The in-vitro determination of the affinity of the inventive substituted pyrazoline compounds to CB1/CB2-Rezeptors is carried out as described in the publication of Ruth A. Ross, Heather C. Brockie et al., “Agonist-inverse agonist characterisation at CB1 and CB2 cannabinoid receptors of L-759633, L759656 and AM630”, British Journal of Pharmacology, 126, 665-672, (1999), whereby the transfected human CB1 and CB2 receptors of Receptor Biology, Inc. are used. The radioligand used for both receptors is [^3H]-CP55940. The respective parts of the description is hereby incorporated by reference and forms part of the present disclosure.
Rat Cerebellum CB1 Binding
Binding affinity to CB1 receptor was evaluated according to a modification of the method described by Govaerts et al., Eur J Pharmac Sci 23, 233-243 (2004). The respective parts of the description is hereby incorporated by reference and forms part of the present disclosure.
Briefly, cerebellum from male wistar rats (250-300 g) were carefully dissected on ice and homogenates were prepared with Potter-Helveheim in a cold 50 mM Tris-HCl solution containing 5 mM MgCl2, 1 mM EDTA and 0.25 M sucrose, pH 7.4. The suspension was centrifuged at 1,000×g for 5 minutes. The supernatants were collected and centrifuged 50,000×g for 15 minutes. The resulting pellets were then resuspended in Tris-HCl buffer without sucrose, homogenised and incubated for 15 min at 37° C. in an orbital shaker bath and centrifuged again at 50,000×g for 15 min. Pellets were weighted, resuspended in Tris-HCl buffer without sucrose, homogenised with Ultraturrax at 13,500 rpm for 3×5 seconds and alicuoted in 0.9 ml volumes in Eppendorf tubes. Alicuotes were centrifuged at 20,800×g for 5 minutes, supernatants discarded and pellets were frozen at −80° C. until use. Total protein concentration was determined using the Bio-Rad Lowry method based kit. Competitive binding experiments were performed in presence of 1 nM [^3H]-CP 55,940 in siliconised glass tubes containing 100 μg protein/tube resuspended in 1 ml final volume of 50 mM Tris-HCl, 5 mM MgCl2, 1 mM EDTA, 0.5% (w/v) bovine serum albumin, pH 7.4. Compounds were present at various concentrations and the non specific binding was determined in the presence of 10 μM HU-210. After 1 hour incubation at 30° C., the suspension was rapidly filtered through 0.5% PEI pre-treated GF/B fiber filters on a 96-well harvester and washed 3 times with 3 ml ice-cold binding buffer without bovine serum albumin. Radioactivity on filters was measured with Wallac Winspectral 1414 counter by liquid scintillation in 6 ml Ecoscint H (National Diagnostics, U.K.). Assays were made in triplicates.
Binding data were analysed by non-linear regression with the software GraphPad Prism Version 3.03.
The binding of the pyrazoline compounds of general formulae I, Ia and Ib to CB1-receptors was determined according to the method described in the section Pharmacological Methods, Part I.

| Compound | IC50 [nM] | Ki [nM] |
| --- | --- | --- |
| Cc1ccc(F)cc1S(=O)(=O)NCC1=NN(c2ccc(Cl)cc2Cl)[C@@H](c2ccc(Cl)cc2)[C@H]1C (racemic) [Example 73, cis-(4RS,5RS)-N-[5-(4-Chloro-phenyl)-1-(2,4-dichloro-phenyl)-4-methyl-4,5-dihydro-1H-pyrazol-3-ylmethyl]-5-fluoro-2-methyl-benzenesulfonamide] | 11.8 | 5.3 |
| Cc1ccc(C)c(S(=O)(=O)NCC2=NN(c3ccc(Cl)cc3Cl)[C@@H](c3ccc(Cl)cc3)[C@H]2C)c1 (racemic) [Example 83, cis-(4RS,5RS)-N-[5-(4-Chloro-phenyl)-1-(2,4-dichloro-phenyl)-4-methyl-4,5-dihydro-1H-pyrazol-3-ylmethyl]-2,5-dimethyl-benzenesulfonamide] | 50.5 | 21.4 |
| O=S(=O)(NCC1=NN(c2ccc(Cl)cc2Cl)C(c2ccc(Cl)cc2)C1)c1cccnc1 (stereo not shown) [Example 53, Pyridine-3-sulfonic acid [5-(4-chloro-phenyl)-1-(2,4-dichloro-phenyl)-4,5-dihydro-1H-pyrazol-3-ylmethyl]-amide hydrochloride] | 88.2 | 43.2 |
| Cc1ccc(F)cc1S(=O)(=O)NCC1=NN(c2ccc(Cl)cc2Cl)[C@@H](c2ccc(Cl)cc2)C1 [Example 63, (R)-N-[5-(4-Chloro-phenyl)-1-(2,4-dichloro-phenyl)-4,5-dihydro-1H-pyrazol-3-ylmethyl]-5-fluoro-2-methyl-benzenesulfonamide] | 50.4 | 21 |
| Cc1cc(S(=O)(=O)NCC2=NN(c3ccc(Cl)cc3Cl)[C@@H](c3ccc(Cl)cc3)C2)c(C)cc1Cl [Example 67, (R)-4-Chloro-N-[5-(4-chloro-phenyl)-1-(2,4-dichloro-phenyl)-4,5-dihydro-1H-pyrazol-3-ylmethyl]-2,5-dimethyl-benzenesulfonamide] | 91 | 40.6 |
| Cc1ccc(C)c(S(=O)(=O)NCC2=NN(c3ccc(Cl)cc3Cl)[C@@H](c3ccc(Cl)cc3)C2)c1 [Example 69, (R)-N-[5-(4-Chloro-phenyl)-1-(2,4-dichloro-phenyl)-4,5-dihydro-1H-pyrazol-3-ylmethyl]-2,5-dimethyl-benzenesulfonamide] | 36.7 | 16.2 |
| Cc1ccc(F)cc1S(=O)(=O)NCC1=NN(c2ccc(Cl)cc2Cl)[C@@H](c2ccc(Cl)cc2)[C@H]1C [Example 74, (4R,5R)-N-[5-(4-Chloro-phenyl)-1-(2,4-dichloro-phenyl)-4-methyl-4,5-dihydro-1H-pyrazol-3-ylmethyl]-5-fluoro-2-methyl-benzenesulfonamide] | 11 | 5.1 |
| O=S(=O)(NCC1=NN(c2ccc(Cl)cc2Cl)C(c2ccc(Cl)cc2)C1)c1cc(C(F)(F)F)ccc1Cl (stereo not shown) [Example 81, 2-Chloro-N-[5-(4-chloro-phenyl)-1-(2,4-dichloro-phenyl)-4,5-dihydro-1H-pyrazol-3-ylmethyl]-5-trifluoromethyl-benzenesulfonamide] | 15.2 | 6.9 |
| COc1ccc(C2CC(CNS(=O)(=O)c3cc(Cl)ccc3F)=NN2c2ccc(Cl)cc2Cl)cc1 (stereo not shown) [Example 94, 5-Chloro-N-[1-(2,4-dichloro-phenyl)-5-(4-methoxy-phenyl)-4,5-dihydro-1-pyrazol-3-ylmethyl]-2-fluoro-benzenesulfonamide] | 74 | 33 |
| COc1ccc(C2CC(CNS(=O)(=O)c3cc(C)ccc3C)=NN2c2ccc(Cl)cc2Cl)cc1 (stereo not shown) [Example 97, N-[1-(2,4-Dichloro-phenyl)-5-(4-methoxy-phenyl)-4,5-dihydro-1H-pyrazol-3-ylmethyl]-2,5-dimethyl-benzenesulfonamide] | 43.9 | 18.4 |
| CCOc1ccc(C2CC(CNS(=O)(=O)c3ccccc3F)=NN2c2ccc(Cl)cc2Cl)cc1 (stereo not shown) [Example 98, N-[1-(2,4-Dichloro-phenyl)-5-(4-ethoxy-phenyl)-4,5-dihydro-1H-pyrazol-3-ylmethyl]-2-fluoro-benzenesulfonafonamide] | 47.1 | 19.8 |
| CCOc1ccc(C2CC(CNS(=O)(=O)c3cc(F)ccc3F)=NN2c2ccc(Cl)cc2Cl)cc1 (stereo not shown) [Example 99, N-[1-(2,4-Dichloro-phenyl)-5-(4-ethoxy-phenyl)-4,5-dihydro-1H-pyrazol-3-ylmethyl]-2,5-difluoro-benzenesulfonamide] | 42.6 | 17.9 |
| CCOc1ccc(C2CC(CNS(=O)(=O)c3cc(Cl)ccc3F)=NN2c2ccc(Cl)cc2Cl)cc1 (stereo not shown) [Example 100, 5-Chloro-N-[1-(2,4-dichloro-phenyl)-5-(4-ethoxy-phenyl)-4,5-dihydro-1H-pyrazol-3-ylmethyl]-2-fluoro-benzenesulfonamide] | 30.8 | 12.8 |
| CCOc1ccc(C2CC(CNS(=O)(=O)c3cc(C(F)(F)F)ccc3Cl)=NN2c2ccc(Cl)cc2Cl)cc1 (stereo not shown) [Example 101, 2-Chloro-N-[1-(2,4-dichloro-phenyl)-5-(4-ethoxy-phenyl)-4,5-dihydro-1H-pyrazol-3-ylmethyl]-5-trifluoromethyl-benzenesulfonamide] | 12.8 | 5.6 |
| CCOc1ccc(C2CC(CNS(=O)(=O)c3cc(F)ccc3C)=NN2c2ccc(Cl)cc2Cl)cc1 (stereo not shown) [Example 102, N-[1-(2,4-Dichloro-phenyl)-5-(4-ethoxy-phenyl)-4,5-dihydro-1H-pyrazol-3-ylmethyl]-5-fluoro-2-methyl-benzenesulfonamide] | 7.2 | 3 |
| CCOc1ccc(C2CC(CNS(=O)(=O)c3cc(C)ccc3C)=NN2c2ccc(Cl)cc2Cl)cc1 (stereo not shown) [Example 103, N-[1-(2,4-Dichloro-phenyl)-5-(4-ethoxy-phenyl)-4,5-dihydro-1H-pyrazol-3-ylmethyl]-2,5-dimethyl-benzenesulfonamide] | 12.1 | 5.3 |
| O=S(=O)(NCC1=NN(c2ccc(Cl)cc2Cl)[C@@H](c2ccc(Cl)cc2)C1)c1cc(Cl)ccc1F [Example 106, (R)-5-Chloro-N-[5-(4-chloro-phenyl)-1-(2,4-dichloro-phenyl)-4,5-dihydro-1H-pyrazol-3-ylmethyl]-2-fluoro-benzenesulfonamide] | 28.5 | 11.9 |
| O=S(=O)(NCC1=NN(c2ccc(Cl)cc2Cl)C(c2ccc(Cl)cc2)C1)c1ccccc1Br (stereo not shown) [Example 136, 2-Bromo-N-[5-(4-chloro-phenyl)-1-(2,4-dichloro-phenyl)-4,5-dihydro-1H-pyrazol-3-ylmethyl]-benzenesulfonamide] | 40 | 16.9 |
| O=S(=O)(NCC1=NN(c2ccc(Cl)cc2Cl)C(c2ccc(Cl)cc2)C1)c1cc(Cl)ccc1Cl (stereo not shown) [Example 139, 2,5-Dichloro-N-[5-(4-chloro-phenyl)-1-(2,4-dichloro-phenyl)-4,5-dihydro-1H-pyrazol-3-ylmethyl]-benzenesulfonamide] | 16.5 | 7 |
| Cc1ccc([N+](=O)[O-])cc1S(=O)(=O)NCC1=NN(c2ccc(Cl)cc2Cl)C(c2ccc(Cl)cc2)C1 (stereo not shown) [Example 142, N-[5-(4-Chloro-phenyl)-1-(2,4-dichloro-phenyl)-4,5-dihydro-1H-pyrazol-3-ylmethyl]-2-methyl-5-nitro-benzenesulfonamide] | 5.5 | 2.3 |
| O=[N+]([O-])c1cccc(S(=O)(=O)NCC2=NN(c3ccc(Cl)cc3Cl)C(c3ccc(Cl)cc3)C2)c1 (stereo not shown) [Example 144, N-[5-(4-Chloro-phenyl)-1-(2,4-dichloro-phenyl)-4,5-dihydro-1H-pyrazol-3-ylmethyl]-3-nitro-benzenesulfonamide] | 55 | 23.2 |
| O=S(=O)(NCC1=NN(c2ccc(Cl)cc2Cl)[C@@H](c2ccc(Cl)cc2)C1)c1ccccc1 [Example 194, (R)-N-[5-(4-Chloro-phenyl)-1-(2,4-dichloro-phenyl)-4,5-dihydro-1H-pyrazol-3-ylmethyl]-benzenesulfonamide] | 88.9 | 38.3 |
| COc1ccc(C2CC(CNS(=O)(=O)c3ccccc3Cl)=NN2c2ccc(Cl)cc2Cl)cc1 (stereo not shown) [Example 217, 2-Chloro-N-[1-(2,4-dichloro-phenyl)-5-(4-methoxy-phenyl)-4,5-dihydro-1H-pyrazol-3-ylmethyl]-benzenesulfonamide] | 69 | 30.8 |
